Data from EPA's CvTdb concentration-time database.

Test system: rat
Assay: concentration in blood after dosing
Conditions: dosed: benzo[a]pyrene, male, Sprague Dawley

In the case of `[3H][3H]` [[3]H], the concentration in blood (0 h, 1.70 nmol, iv) is reported as 37.2 nM, the concentration in blood (0 h, 3.20 nmol, oral) is reported as 0.288 nM and the concentration in blood (0 h, 4 nmol, oral) is reported as 0.112 nM. For the same molecule, the concentration in blood (153 s, 1.70 nmol, iv) was 38.5 nM, the concentration in blood (172 s, 1.70 nmol, iv) was 16.8 nM and the concentration in blood (225 s, 4 nmol, oral) was 0.176 nM. For the same molecule, the concentration in blood (238 s, 3.20 nmol, oral) was 0.0632 nM, the concentration in blood (265 s, 1.70 nmol, iv) was 26.5 nM and the concentration in blood (278 s, 1.70 nmol, iv) was 26.9 nM. It also gave a concentration in blood (297 s, 3.20 nmol, oral) of 0.492 nM, a concentration in blood (321 s, 3.20 nmol, oral) of 0.107 nM and a concentration in blood (331 s, 4 nmol, oral) of 0.194 nM. The concentration in blood (0.1116 h, 1.70 nmol, iv) was 12 nM, the concentration in blood (0.1125 h, 1.70 nmol, iv) was 18.1 nM and the concentration in blood (0.1153 h, 1.70 nmol, iv) was 8.27 nM. For the same molecule, the concentration in blood (0.1252 h, 1.70 nmol, iv) was 3.03 nM, the concentration in blood (0.1473 h, 1.70 nmol, iv) was 12.7 nM and the concentration in blood (0.1638 h, 4 nmol, oral) was 0.0356 nM. For the same molecule, the concentration in blood (0.1807 h, 4 nmol, oral) was 0.233 nM, the concentration in blood (0.182 h, 1.70 nmol, iv) was 8.84 nM and the concentration in blood (0.2047 h, 3.20 nmol, oral) was 0.443 nM. It also gave a concentration in blood (0.3049 h, 1.70 nmol, iv) of 3.66 nM, a concentration in blood (0.3458 h, 1.70 nmol, iv) of 3.2 nM and a concentration in blood (0.4131 h, 3.20 nmol, oral) of 0.622 nM. For the same molecule, the concentration in blood (0.4184 h, 4 nmol, oral) was 0.364 nM, the concentration in blood (0.4356 h, 4 nmol, oral) was 0.0332 nM and the concentration in blood (0.443 h, 3.20 nmol, oral) was 0.188 nM. For the same molecule, the concentration in blood (0.6282 h, 4 nmol, oral) was 0.444 nM, the concentration in blood (0.6407 h, 1.70 nmol, iv) was 2.67 nM and the concentration in blood (0.6517 h, 3.20 nmol, oral) was 0.22 nM. For the same molecule, the concentration in blood (0.6678 h, 4 nmol, oral) was 0.0641 nM, the concentration in blood (0.6836 h, 3.20 nmol, oral) was 0.741 nM and the concentration in blood (0.6859 h, 1.70 nmol, iv) was 1.6 nM. It also gave a concentration in blood (0.8687 h, 4 nmol, oral) of 0.516 nM, a concentration in blood (0.9146 h, 1.70 nmol, iv) of 2.27 nM and a concentration in blood (0.9355 h, 1.70 nmol, iv) of 0.81 nM. For the same molecule, the concentration in blood (0.9369 h, 4 nmol, oral) was 0.0732 nM, the concentration in blood (0.9512 h, 3.20 nmol, oral) was 0.245 nM and the concentration in blood (0.9543 h, 3.20 nmol, oral) was 0.873 nM. The concentration in blood (1.04 h, 3.20 nmol, oral) was 0.279 nM, the concentration in blood (1.135 h, 3.20 nmol, oral) was 0.947 nM and the concentration in blood (1.371 h, 1.70 nmol, iv) was 1.8 nM. The concentration in blood (1.4 h, 3.20 nmol, oral) was 0.297 nM, the concentration in blood (1.416 h, 1.70 nmol, iv) was 0.882 nM and the concentration in blood (1.435 h, 3.20 nmol, oral) was 1.17 nM. It also gave a concentration in blood (1.639 h, 3.20 nmol, oral) of 0.347 nM, a concentration in blood (1.858 h, 1.70 nmol, iv) of 1.32 nM and a concentration in blood (1.88 h, 1.70 nmol, iv) of 0.331 nM. For the same molecule, the concentration in blood (1.886 h, 4 nmol, oral) was 0.208 nM, the concentration in blood (1.95 h, 3.20 nmol, oral) was 1.17 nM and the concentration in blood (2.33 h, 3.20 nmol, oral) was 0.383 nM. It also gave a concentration in blood (2.464 h, 3.20 nmol, oral) of 1.19 nM, a concentration in blood (2.498 h, 4 nmol, oral) of 0.817 nM and a concentration in blood (3.067 h, 3.20 nmol, oral) of 1.37 nM. It also gave a concentration in blood (3.756 h, 3.20 nmol, oral) of 0.16 nM, a concentration in blood (3.763 h, 4 nmol, oral) of 0.0925 nM and a concentration in blood (3.824 h, 1.70 nmol, iv) of 1.31 nM. The concentration in blood (3.841 h, 1.70 nmol, iv) was 0.238 nM, the concentration in blood (4.13 h, 4 nmol, oral) was 0.9 nM and the concentration in blood (4.75 h, 3.20 nmol, oral) was 0.144 nM. It also gave a concentration in blood (4.761 h, 3.20 nmol, oral) of 1.39 nM, a concentration in blood (5.695 h, 4 nmol, oral) of 0.059 nM and a concentration in blood (5.72 h, 3.20 nmol, oral) of 0.0876 nM. It also gave a concentration in blood (5.758 h, 3.20 nmol, oral) of 1.58 nM, a concentration in blood (5.767 h, 1.70 nmol, iv) of 0.231 nM and a concentration in blood (5.852 h, 1.70 nmol, iv) of 1.2 nM. The concentration in blood (7.678 h, 3.20 nmol, oral) was 0.0754 nM, the concentration in blood (7.696 h, 3.20 nmol, oral) was 1.38 nM and the concentration in blood (8.636 h, 1.70 nmol, iv) was 1.06 nM. It also gave a concentration in blood (8.719 h, 1.70 nmol, iv) of 0.195 nM, a concentration in blood (9.661 h, 3.20 nmol, oral) of 1.58 nM and a concentration in blood (9.666 h, 3.20 nmol, oral) of 0.0665 nM. The concentration in blood (11.66 h, 4 nmol, oral) was 0.971 nM, the concentration in blood (11.69 h, 3.20 nmol, oral) was 1.46 nM and the concentration in blood (11.71 h, 3.20 nmol, oral) was 0.0645 nM. For the same molecule, the concentration in blood (11.72 h, 4 nmol, oral) was 0.0461 nM, the concentration in blood (12.06 h, 1.70 nmol, iv) was 0.983 nM and the concentration in blood (23.76 h, 4 nmol, oral) was 0.0211 nM. The concentration in blood (23.79 h, 3.20 nmol, oral) was 0.0341 nM, the concentration in blood (23.82 h, 3.20 nmol, oral) was 1.25 nM and the concentration in blood (23.82 h, 4 nmol, oral) was 0.858 nM. For the same molecule, the concentration in blood (28.68 h, 1.70 nmol, iv) was 0.0889 nM, the concentration in blood (29.09 h, 1.70 nmol, iv) was 0.82 nM and the concentration in blood (31.89 h, 3.20 nmol, oral) was 0.0299 nM.
